In patent US8309554B2 (priority 2008, dated 2012):
Several values for one entry are separate records, joined by “and”; a condition that tells them apart may be missing. Equal values may be shown once. Read-outs that look alike come from different tables or passages of the source.

Assays:
H460 = experiment: cells; assay type: cell-based; details: for IC50: Homo sapiens
H460 spheroid = experiment: cells; assay type: cell-based; details: Homo sapiens
in vivo = details: mouse, ip
HT29 = experiment: cells; assay type: cell-based; details: for IC50: Homo sapiens, HT-29, 2 h
[1] = test system: H460 non small cell lung xenograft; details: mouse, in vivo
[2] = NCI-H460, read-out: 2 h Air H460 monolayer IC50
[3] = NCI-H460, read-out: 2 h N2 H460 monolayer IC50
[4] = NCI-H460, read-out: 2 h Air H460 spheroid IC50
[5] = NCI-H460, read-out: 2 h N2 H460 spheroid IC50
[6] = NCI-H460, 2 h, read-out: 2 hr Air H460 IC50
[7] = NCI-H460, 2 h, read-out: 2 hr N2 H460 IC50

SMILES	IC50 (H460; [2]) [µM]	IC50 (H460; [3]) [µM]	IC50 (H460 spheroid; [4]) [µM]	IC50 (H460 spheroid; [5]) [µM]	MTD (in vivo) [mg/kg]	HT29 HCR: Air/N2 (HT29)	IC50 (HT29; read-out: 2 hr Air HT29 IC50) [µM]	IC50 (HT29; read-out: 2 hr N2 HT29 IC50) [µM]	tumor growth delay to 500 mm^3 [1]	H460 HCR: Air/N2 (H460)	IC50 (H460; [6]) [µM]	IC50 (H460; [7]) [µM]
CN(c1ccc(N(CCCl)CCCl)cc1)S(=O)(=O)Cn1ccnc1[N+](=O)[O-] [TH-1107]	113	7.9	< 0.69	< 0.69	–	–	–	–	–	–	–	–
Cc1cc(OS(=O)(=O)C(C)c2ccsc2[N+](=O)[O-])ccc1N(CCCl)CCCl (stereo not drawn) [TH-1120]	2.4	0.3	< 0.08	< 0.08	–	–	–	–	–	–	–	–
CN(c1ccc(N(CCCl)CCCl)cc1)S(=O)(=O)C(C)(C)c1cnc([N+](=O)[O-])n1C [TH-1126]	45	7.1	< 0.69	< 0.69	–	–	–	–	–	–	–	–
CC(n1ccnc1[N+](=O)[O-])S(=O)(=O)N(C)c1ccc(N(CCCl)CCCl)cc1 (stereo not drawn) [TH-1127]	37	3.9	< 0.69	< 0.69	–	–	–	–	–	–	–	–
CS(=O)(=O)CCC(c1ccsc1[N+](=O)[O-])S(=O)(=O)Oc1ccc(N(CCCl)CCCl)cc1 (stereo not drawn) [TH-1266, 3-(4-(N,N-bis-(2-Chloroethyl)amino)phenoxysulfonyl-(2-methylsulfonyl)ethyl)methyl-2-nitrothiophene]	–	–	–	–	40	>29	> 1000	34	25 days and 21 days	183	55	0.3
O=[N+]([O-])c1sccc1C(Cc1ccc(O)nc1)S(=O)(=O)Oc1ccc(N(CCCl)CCCl)cc1 (stereo not drawn) [TH-1305, 3-(4-(N,N-bis-(2-Chloroethyl)amino)phenoxysulfonyl-(2-hydroxypyridin-5-yl-methyl))methyl-2-nitrothiophene]	–	–	–	–	20	>44	> 300	6.8	10 days	67	47	0.7
O=[N+]([O-])c1sccc1C(Cc1cccnc1)S(=O)(=O)Oc1ccc(N(CCCl)CCCl)cc1 (stereo not drawn) [TH-1331, 3-(4-(N,N-bis-(2-Chloroethyl)amino)phenoxysulfonyl-(pyridin-3-yl-methyl))methyl-2-nitrothiophene]	–	–	–	–	60	15	166	11	11 days and 10 days	69	103	1.5
O=C(CO)Nc1ccc(CC(c2ccsc2[N+](=O)[O-])S(=O)(=O)Oc2ccc(N(CCCl)CCCl)cc2)cn1 (stereo not drawn) [TH-1354, 3-(4-(N,N-bis-(2-Chloroethyl)amino)phenoxysulfonyl-(2-(hydroxyacetylamino)pyridin-5-yl-methyl))methyl-2-nitrothiophene]	–	–	–	–	40	33	660	20	15 days and 12 days	65	156	2.4
Cn1cncc1CC(c1ccsc1[N+](=O)[O-])S(=O)(=O)Oc1ccc(N(CCCl)CCCl)cc1 (stereo not drawn) [TH-1365]	–	–	–	–	10	25	270	11	10 days	33	23	0.7
O=C(CO)Nc1ccc(CC(c2ccsc2[N+](=O)[O-])S(=O)(=O)Oc2ccc(N(CCCl)CCCl)cc2)cc1 (stereo not drawn) [TH-1400]	–	–	–	–	–	2.1	170	80	–	54.3	76	1.4
Nc1cccc(OS(=O)(=O)CCC(c2ccsc2[N+](=O)[O-])S(=O)(=O)Oc2ccc(N(CCCl)CCCl)cc2)c1 (stereo not drawn) [TH-1402]	–	–	–	–	–	–	> 1000	> 1000	–	93.3	140	1.5
O=C(CO)Nc1cccc(OS(=O)(=O)CCC(c2ccsc2[N+](=O)[O-])S(=O)(=O)Oc2ccc(N(CCCl)CCCl)cc2)c1 (stereo not drawn) [TH-1414]	–	–	–	–	–	7	740	100	–	54	135	2.5
O=[N+]([O-])c1sccc1C(Cc1nccs1)S(=O)(=O)Oc1ccc(N(CCCl)CCCl)cc1 (stereo not drawn) [TH-1419]	–	–	–	–	–	–	> 300	> 300	–	45	36	0.8
O=[N+]([O-])c1sccc1C(Cc1cnc(OCCO)c(Cl)c1)S(=O)(=O)Oc1ccc(N(CCCl)CCCl)cc1 (stereo not drawn) [TH-1420]	–	–	–	–	–	–	> 300	> 300	–	62	80	1.3
CCCN(CCCl)c1ccc(OS(=O)(=O)C(Cc2ncco2)c2ccsc2[N+](=O)[O-])cc1 (stereo not drawn) [TH-1422]	–	–	–	–	–	>3.3	> 300	90	–	88	35	0.4
O=[N+]([O-])c1sccc1C(Cc1ccc(C(F)(F)F)nc1)S(=O)(=O)Oc1ccc(N(CCCl)CCCl)cc1 (stereo not drawn) [TH-1423]	–	–	–	–	–	–	> 300	> 300	–	750	300	0.4
O=[N+]([O-])c1sccc1C(Cc1ccc(N2CCOCC2)nc1)S(=O)(=O)Oc1ccc(N(CCCl)CCCl)cc1 (stereo not drawn) [TH-1426]	–	–	–	–	–	–	> 300	> 300	–	950	190	0.2
O=[N+]([O-])c1sccc1C(Cc1ccc2nccn2c1)S(=O)(=O)Oc1ccc(N(CCCl)CCCl)cc1 (stereo not drawn) [TH-1435, 3-(4-(N,N-bis-(2-Chloroethyl)amino)phenoxysulfonyl-(imidazopyidin-5-yl-methyl))methyl-2-nitrothiophene]	–	–	–	–	–	>35	> 300	8.5	–	30	18	0.6
CNc1ccc(CC(c2ccsc2[N+](=O)[O-])S(=O)(=O)Oc2ccc(N(CCCl)CCCl)cc2)cn1 (stereo not drawn) [TH-1442]	–	–	–	–	–	66	230	3.5	–	116	93	0.8
O=[N+]([O-])c1sccc1C(Cc1ccc2c(c1)nnn2CCO)S(=O)(=O)Oc1ccc(N(CCCl)CCCl)cc1 (stereo not drawn) [TH-1451, 3-(4-(N,N-bis-(2-Chloroethyl)amino)phenoxysulfonyl-(1-(2-hydroxyethyl)benzotriazol-5-yl-methyl))methyl-2-nitrothiophene]	–	–	–	–	–	42	250	6	–	110	110	1
O=[N+]([O-])c1sccc1C(Cc1cn2ccccc2n1)S(=O)(=O)Oc1ccc(N(CCCl)CCCl)cc1 (stereo not drawn) [TH-1456, 3-(4-(N,N-bis-(2-Chloroethyl)amino)phenoxysulfonyl-(imidazopyridin-2-yl-methyl))methyl-2-nitrothiophene]	–	–	–	–	–	>60	> 300	5	–	100	30	0.3
O=[N+]([O-])c1sccc1C(Cc1ccc2nnn(CCO)c2c1)S(=O)(=O)Oc1ccc(N(CCCl)CCCl)cc1 (stereo not drawn) [TH-1457, 3-(4-(N,N-bis-(2-Chloroethyl)amino)phenoxysulfonyl-(1-(2-hydroxyethyl)benzotriazol-6-yl-methyl))methyl-2-nitrothiophene]	–	–	–	–	–	45	180	4	–	240	120	0.5
C[C@H](O)C(=O)Nc1ccc(CC(c2ccsc2[N+](=O)[O-])S(=O)(=O)Oc2ccc(N(CCCl)CCCl)cc2)cn1 (stereo partly drawn) [TH-1465, 3-(4-(N,N-bis-(2-Chloroethyl)amino)phenoxysulfonyl-(2-(lactic acylamino)pyridine-5-yl-methyl))methyl-2-nitrothiophene]	–	–	–	–	–	30	210	7	–	50	40	0.8
COCC(=O)N(C)c1ccc(CC(c2ccsc2[N+](=O)[O-])S(=O)(=O)Oc2ccc(N(CCCl)CCCl)cc2)cn1 (stereo not drawn) [TH-1478, 3-(4-(N,N-bis-(2-Chloroethyl)amino)phenoxysulfonyl-(2-(N-methoxyacetyl-N-methylamino)pyridin-5-yl-methyl))methyl-2-nitrothiophene]	–	–	–	–	–	11	220	20	–	300	120	0.4
COCC(=O)Nc1ccc(CC(c2ccsc2[N+](=O)[O-])S(=O)(=O)Oc2ccc(N(CCCl)CCCl)cc2)cc1 (stereo not drawn) [TH-1479]	–	–	–	–	–	2.7	> 300	110	–	325	260	0.8
O=[N+]([O-])c1sccc1C(Cc1ccc(O[C@H]2CCCC[C@@H]2O)nc1)S(=O)(=O)Oc1ccc(N(CCCl)CCCl)cc1 (stereo partly drawn) [TH-1487]	–	–	–	–	–	1	240	280	–	64	51	0.8
O=[N+]([O-])c1sccc1C(COC1CCCCC1)S(=O)(=O)Oc1ccc(N(CCCl)CCCl)cc1 (stereo not drawn) [TH-1521]	–	–	–	–	–	>3.2	> 300	93	–	180	234	1.3
CCN(CC)CC#CCC(c1ccsc1[N+](=O)[O-])S(=O)(=O)Oc1ccc(N(CCCl)CCCl)cc1 (stereo not drawn) [TH-1545]	–	–	–	–	–	12	60	5	–	51	102	2
